Tests used:
PDE3 = target: T1, PDE3 (Homo sapiens, UniProt Q14432); experiment: Inhibition of PDE isoenzymes: PDE3 (cGMP-inhibited), homogenates of human blood platelets; assay type: biochemical; settings: 0.5 μM cAMP or cGMP, pH 7.4, 37° C., 15 min, read-out: -log IC50 PDE3 (converted)
T1 construct: investigated in homogenates of human blood platelets; from tissue; host or cells: human blood platelets (homogenate)

PDE4 = experiment: Inhibition of PDE isoenzymes: PDE4 (cAMP-specific), cytosol of human polymorphonuclear leukocytes, cAMP as substrate; assay type: biochemical; settings: cytosol of human PMNL; 0.5 μM cAMP; motapizone (1 μM) to suppress PDE3; pH 7.4, 37° C., 15 min

T1 sequence (Q14432 whole entry): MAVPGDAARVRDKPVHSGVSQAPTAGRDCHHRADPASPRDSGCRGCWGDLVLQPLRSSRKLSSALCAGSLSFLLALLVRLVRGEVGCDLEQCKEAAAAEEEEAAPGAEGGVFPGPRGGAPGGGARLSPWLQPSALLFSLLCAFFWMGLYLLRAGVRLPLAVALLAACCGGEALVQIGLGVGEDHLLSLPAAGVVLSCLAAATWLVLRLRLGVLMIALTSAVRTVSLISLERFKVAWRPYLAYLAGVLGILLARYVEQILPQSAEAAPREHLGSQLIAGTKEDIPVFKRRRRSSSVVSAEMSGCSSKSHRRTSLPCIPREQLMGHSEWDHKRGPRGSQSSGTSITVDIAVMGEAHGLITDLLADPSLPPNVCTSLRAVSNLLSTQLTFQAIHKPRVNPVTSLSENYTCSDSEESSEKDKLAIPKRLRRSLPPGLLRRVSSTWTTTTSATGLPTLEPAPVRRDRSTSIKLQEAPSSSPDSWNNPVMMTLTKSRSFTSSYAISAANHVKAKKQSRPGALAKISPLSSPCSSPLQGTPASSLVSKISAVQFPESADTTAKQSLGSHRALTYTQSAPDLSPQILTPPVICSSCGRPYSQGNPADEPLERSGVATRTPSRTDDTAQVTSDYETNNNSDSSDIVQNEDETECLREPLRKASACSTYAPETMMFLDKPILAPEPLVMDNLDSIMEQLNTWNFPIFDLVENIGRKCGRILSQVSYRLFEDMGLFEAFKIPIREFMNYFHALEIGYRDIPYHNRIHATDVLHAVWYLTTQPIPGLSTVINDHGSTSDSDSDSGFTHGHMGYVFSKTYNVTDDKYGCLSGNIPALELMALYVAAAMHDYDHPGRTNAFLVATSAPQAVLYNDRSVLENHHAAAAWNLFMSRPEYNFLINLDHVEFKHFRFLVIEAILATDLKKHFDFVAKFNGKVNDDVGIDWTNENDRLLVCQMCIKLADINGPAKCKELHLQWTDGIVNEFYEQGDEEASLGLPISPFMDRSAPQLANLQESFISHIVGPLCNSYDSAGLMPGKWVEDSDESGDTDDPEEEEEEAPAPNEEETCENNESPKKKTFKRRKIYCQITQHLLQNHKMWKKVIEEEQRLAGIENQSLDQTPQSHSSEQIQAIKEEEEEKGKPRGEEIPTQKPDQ

| IC50 (PDE3) [nM] | -log IC50 PDE4 (PDE4) [mol/l] | SMILES |
| --- | --- | --- |
| 204 | 8.36 | COc1ccc(C2=NN(c3ccc(C4=NNC(=O)CC4C)cc3)C(=O)[C@H]3CC=CC[C@@H]23)cc1OC (relative stereo) [Compound 2, (cis)-4-(3,4-Dimethoxyphenyl)-2-{4-(4-methyl-6-oxo-1,4,5,6-tetrahydropyridazin-3-yl)phenyl}-4a,5,8,8a-tetrahydro-2H-phthalazin-1-one] |
| 891 | 8.48 | COc1ccc(C2=NN(c3ccc(C(=O)Nc4ccc(C5=NNC(=O)CC5C)cc4)cc3)C(=O)[C@H]3CC=CC[C@@H]23)cc1OC (relative stereo) [Compound 4, (cis)-N-{4-(4-Methyl-6-oxo-1,4,5,6-tetrahydro-pyridazin-3-yl)phenyl}-4-{4-(3,4-dimethoxyphenyl)-1-oxo-4a,5,8,8a-tetrahydro-1H-phthalazin-2-yl}benzamide] |
| 1260 | 8.10 | COc1ccc(C2=NN(CC(=O)Nc3ccc(-c4ccc(=O)[nH]n4)cc3)C(=O)[C@@H]3CC=CC[C@H]23)cc1OC (relative stereo) [Compound 5] |
| 832 | 8.17 | COc1ccc(C2=NN(CCCCC(=O)Nc3ccc(-c4ccc(=O)[nH]n4)cc3)C(=O)[C@@H]3CC=CC[C@H]23)cc1OC (relative stereo) [Compound 6] |
| 182 | 8.40 | COc1ccc(C2=NN(CC(=O)Nc3ccc(C4=NNC(=O)CC4C)cc3)C(=O)[C@H]3CC=CC[C@@H]23)cc1OC (relative stereo) [Compound 7, (cis)-N-{4-(4-Methyl-6-oxo-1,4,5,6-tetrahydro-pyridazin-3-yl)phenyl}-2-{4-(3,4-dimethoxy-phenyl)-1-oxo-4a,5,8,8a-tetrahydro-1H-phthalazin-2-yl}acetamide] |
| 100 | 8.17 | COc1ccc(C2=NN(C(C)CCC(=O)Nc3ccc(C4=NNC(=O)CC4C)cc3)C(=O)[C@H]3CC=CC[C@@H]23)cc1OC (relative stereo) [Compound 8, (cis)-N-{4-(4-Methyl-6-oxo-1,4,5,6-tetrahydro-pyridazin-3-yl)phenyl}-4-{4-(3,4-dimethoxyphenyl)-1-oxo-4a,5,8,8a-tetrahydro-1H-phthalazin-2-yl}valeramide] |
| 4900 | 9.08 | COc1ccc(C2=NN(c3ccc(C(=O)Nc4ccc(-c5ccc(=O)[nH]n5)cc4)cc3)C(=O)[C@H]3CC=CC[C@@H]23)cc1OC (relative stereo) [Compound 9, (cis)-N-{4-(6-Oxo-1,6-dihydro-pyridazin-3-yl)phenyl}-4-(4-{3,4-dimethoxyphenyl}-1-oxo-4a,5,8,8a-tetrahydro-1H-phthalazin-2-yl)benzamide] |
| 81.3 | 7.00 | COc1ccc(C2=NN(c3ccc(C4=NNC(=O)CC4C)cc3)C(=O)[C@H]3CC=CC[C@@H]23)cc1Cl (relative stereo) [Compound 12, (cis)-4-(3-chloro-4-methoxyphenyl)-2-{4-(4-methyl-6-oxo-1,4,5,6-tetrahydropyridazin-3-yl)phenyl}-4a,5,8,8a-tetrahydro-2H-phthalazin-1-one] |
| 35.5 | 7.77 | COc1ccc(C2=NN(CCCCOc3ccc(C4=NNC(=O)CC4C)cc3)C(=O)[C@H]3CC=CC[C@@H]23)cc1Cl (relative stereo) [Compound 13, (cis)-6-(4-[4-{4-(3-Chloro-4-methoxyphenyl)-1-oxo-4a,5,8,8a-tetrahydro-2H-phthalazin-2-yl}-1-butyloxy)phenyl]-4,5-dihydro-5-methyl-2H-pyridazin-3-one] |
| 275 | 8.05 | CCOc1ccc(C2=NN(c3ccc(C4=NNC(=O)CC4C)cc3)C(=O)[C@H]3CC=CC[C@@H]23)cc1OCC (relative stereo) [Compound 14, (cis)-4-(3,4-diethoxyphenyl)-2-{4-(4-methyl-6-oxo-1,4,5,6-tetrahydropyridazin-3-yl)phenyl}-4a,5,8,8a-tetrahydro-2H-phthalazin-1-one] |
| 209 | 8.60 | CCOc1ccc(C2=NN(CCCCOc3ccc(C4=NNC(=O)CC4C)cc3)C(=O)[C@H]3CC=CC[C@@H]23)cc1OCC (relative stereo) [Compound 15, (cis)-6-(4-[4-{4-(3,4-diethoxyphenyl)-1-oxo-4a,5,8,8a-tetrahydro-2H-phthalazin-2-yl}-1-butyloxy)phenyl]-4,5-dihydro-5-methyl-2H-pyridazin-3-one] |
| 437 | 8.64 | COc1ccc(C2=NN(c3ccc(C4=NNC(=O)CC4C)cc3)C(=O)[C@@H]3CC=CC[C@H]23)cc1OC (stereo partly drawn) [Compound 16, (4aS,8aR)-4-[4-{4-(3,4-dimethoxyphenyl)-1-oxo-4a,5,8,8a-tetrahydro-2H-phthalazin-2-yl}phenyl]-5,6-dihydro-5-methylpyridazin-1-one] |
